Experimental data published in EP3050886A1, “Fluorescent dyes and dye precursors” (Bürkert Werke GmbH, priority 2015, dated 2016).

Key:
[1] = Absorption spectra / extinction coefficients; assay type: physicochemical
Experimental: Absorption spectra were recorded in a 1-cm path length cuvette (Hellma, 104.002B-QS) on a SPECORD®-205 spectrometer from Analytik Jena.
The Extinction coefficients of the flourophores fluorescein, 5-carboxyfluorescein (5-CF), 5-carboxy Oregon Green™ (5-COG), 5-amido N-propyl Oregon Green (5-POG; Example 2) and 5-amido N-propyl fluorescein (5-PFA; Example 3) were measured in 0.1 M NaOH solution at pH 12.7.
The extinction coefficients of the pro-fluorophores 5-thiourea N-propyl fluorescein diacetate (5-PFDAT; Example 5), 5-propyl carboxylate fluorescein diacetate (5-PFDAE; Example 8), 5-amido N-propyl fluorescein diacetate (5-PFDA; Example 7), 5-carboxy Oregon Green diacetate (5-COGDA; Example 9), 5-amido N-propyl Oregon Green diacetate (5-POGDA; Example 6) and 5-amido N-propyl Oregon Green acetoxymethylester (5-POGAM; Example 10) were measured in PBS buffer containing 0.6 % glutaraldehyde at pH 7.

[2] = Fluorometric measurements / quantum yield; assay type: physicochemical; settings: for Φ (quantum yield): 1 µM in 0.1 M NaOH at pH 12.7, excitation 488 nm, standard fluorescein, n = 3; for λem / λex: 0.1 M NaOH at pH 12.7
Experimental: Fluorometric measurements were made using fluorescence grade quartz cuvette and FluoroLog®-3 spectrofluorometer from Horiba Jobin Yvon equipped with sample stirring. The quantum yields (QY) of 5-CF, 5-COG, 5-POG and 5-PFA were measured with samples at 1 µM (absorbance 488 nm ≤ 0.2) in 0.1 M NaOH at pH 12.7. Every sample and the standard (fluorescein) was prepared freshly before use. In this study, fluorescein in 0.1 M NaOH at pH 12.7 was the reference system with a known quantum yield (Φ = 0.925).
Quantum yield measurements were done using standard absorption and emission spectrometers. Emission spectra range was between the wavelengths 498 - 600 nm and excitation wavelength was 488 nm for the samples and fluorescein. The refractive indices of the samples and fluorescein solutions were the same since they were prepared in the same buffer. Under these conditions, quantum yields were calculated by using the equation: Φ^i = (F^ifs/F^sfi)*Φ^s [formula]
wherein Φ^i and Φ^s are the photoluminescence QY of the sample and standard (fluorescein), respectively; F^i and F^s are the integrated intensities (areas) of sample and fluorescein spectra, respectively; and fi and fs are the absorption factor of the sample and fluorescein, respectively, with fi or s = 1-10^-Ai or s, wherein A = absorbance.
The same experiment was repeated three times (n = 3).

[3] = system: Bacillus subtilis (B. subtilis) (ATCC 6633); assay: Bacteria staining test, fluorescence microscopy; assay type: cell-based; settings: Fig. 3d, comparison between pro-fluorophores
Experimental: (§1) Escherichia coli (E. coli) (ATCC 8739) and Bacillus subtilis (B. subtilis) (ATCC 6633) strains were routinely grown in Luria Bertani (LB) broth or on LB agar plates for 18h at 37 °C. Waterborne environmental bacteria such as Enterobacter cloacae (E. cloacae), Chryseobacterium indologenes (C. indologenes), Pseudomonas aeruginosa (P. aeruginosa), and E. coli (EC18) were purchased from Eurofins™. Environmental bacteria were grown in LB broth or on casein-peptone soymeal-peptone agar plates for 18h at 37 °C.
(§2) For the staining tests, E. coli (ATCC 8739 or EC18), E. cloacae, C. indologenes, P. aeruginosa and B. subtilis were cultivated in Luria-Bertani (LB) broth until exponential phase at 37°C with shaking at 300 rpm revolutions per minutes (rpm). Bacteria were harvested and washed in sterile phosphate buffer saline solution (PBS) at pH […] by centrifugation at 10000 rpm for 3 min at room temperature (21 ± 2 °C). Then the bacteria were resuspended in PBS at a concentration of 1·10^9 bacteria/ml. Bacteria concentration was calculated according to the turbidity measure at 660 nm (A660nm=1 correspond to bacterial suspension at ∼ 5·10^8 bacteria/ ml).
(§3) Dead bacterial suspensions at 1·10^9 bacteria/ml (negative controls) of these five species of bacteria were prepared individually by addition of 20 µl of bleach containing 2.6 % active chlorine. Bacteria were treated with bleach solution for 15 min. Dead bacteria were washed twice in sterile PBS by centrifugation at 10000 rpm for 3 min at room temperature. The culturability of the negative controls was assessed by plating 100 µl of bacterial suspension onto LB agar or Caso agar and incubating the plates at 37 °C for 72 h.
(§4) Bacteria (100 µl suspension at 1·10^9 bacteria/ml) were stained with 10 µM or 15 µM of pro-fluorophore (5-CFDA, 5-PFDAE, 5-PFDAT, 5-PFDA, 5-COGDA, 5-POGDA or 5-POGAM) in 200 µl of PBS solution containing 0.6 % of glutaraldehyde. Bacteria were incubated at 37 °C for 10 - 60 min with pro-fluorophore in darkness. After bacterial staining, they were washed and resuspended in 100 µl of PBS as described above.
(§5) Staining of the bacterial suspension was observed under a fluorescent microscope. These bacteria were imaged with a Leica DM5500 microscope equipped with FITC filter. […] Images were collected with a 100x objective. Fluorescence intensity of stained bacterial suspension was also measured with FluoroLog®-3 (Horiba Jobin Yvon) spectrofluorometer equipped with sample stirring. Samples were placed in fluorescence grade quartz cuvette having a volume of 1 ml. The excitation wavelength used was 488 nm and emission wavelength used was 517 nm. The same experiment was repeated three times (n = 3).

[4] = Short-term chemical stability (spontaneous fluorescence generation) in aqueous buffer; assay type: physicochemical; settings: for chemical stability in aqueous solution (in words): PBS solution containing 0.6 % glutaraldehyde, 37°C
Experimental: The short-term chemical stability of the pro-fluorophores of the present invention in an aqueous buffer was evaluated by fluorometric measurement analysis after several minutes of storage at 37°C.
Each pro-fluorophore (5-CFDA, 5-PFDAE, 5-PFDAT, 5-PFDA, 5-COGDA, 5-POGDA, 5-POGAM) was dissolved in dimethylsulfoxide (DMSO) in order to prepare a 10 mM stock solution. Short-term stability studies (0-60 min) were performed in the absence of light at 37°C. The pro-fluorophore stock solutions were diluted into a PBS solution containing 0.6 % of glutaraldehyde (pH ∼7). The pro-fuorophore final concentration was 15 µM. Samples were stored in a fluorescence grade quartz cuvette having a volume of 1 ml. Fluorescence emission spectra between 500 and 540 nm were recorded every 10 minutes. The excitation wavelength used was 488 nm. Fluorometric measurement were made with a FluoroLog®-3. (Horiba Jobin Yvon) spectrofluorometer equipped with sample stirring. The same experiment was repeated three times (n = 3).
Thus, the slope of the straight line corresponds to the speed of spontaneous fluorescence generation.

E. coli (ATCC 8739) [5] = assay: Labeling of viable or dead E. coli, fluorescence microscopy; assay type: cell-based, Escherichia coli; settings: 15 µM, 30 min at 37 °C, Figure 4
Experimental: as §1, §2, §3, §4, §5
The pro-fluorophores according to the present invention are preferably used to label E. coli cells. Viable or dead E. coli (ATCC 8739) are incubated with these fluorophores and commercial 5-CFDA as described above. […] Glutaraldehyde is added to the incubation solutions to improve the retention of the fluorophores in bacteria.
Bacteria were washed before being imaged with a Leica DM5500 microscope, 100x objective. Scale bars indicate 10 µm.

E. coli (ATCC 8739) [6] = assay: Labeling of viable E. coli, fluorescence intensity by spectrofluorometer; assay type: cell-based, Escherichia coli
Experimental: as §2, §3
[…] Bacteria were incubated at 37 °C for 10 - 60 min with pro-fluorophore in darkness. After bacterial staining, they were washed and resuspended in 100 µl of PBS as described above.
as §5
Viable or dead E. coli (ATCC 8739) were incubated with different pro-fluorophores (10 - 15 µM) for 30 min at 37 °C. After washes, fluorescence of the E. coli suspension was measured with a FluoroLog®-3 spectrofluorometer (excitation wavelength: 488 nm, emission wavelength: 517 nm). Relative rates of viable E. coli fluorescence intensity were calculated by normalizing the difference of viable E. coli fluorescence intensity and dead E. coli fluorescence intensity with 5-CFDA staining.
Viable E. coli (ATCC 8739) were incubated with different pro-fluorophores (15 µM) at 37 °C for 10 - 60 min. After washes, E. coli fluorescence suspension was measured with FluoroLog®-3 spectrofluorometer (excitation wavelength: 488 nm, emission wavelength: 517 nm).

[7] = fluorophores, 0.1 M NaOH solution at pH 12.7
[8] = pro-fluorophores, PBS buffer containing 0.6 % glutaraldehyde at pH 7

| Structure (SMILES) | E (extinction coefficient) [1, 7] [M⁻¹ cm⁻¹] | λAbs max [1, 7] [nm] | Φ (quantum yield) [2] | λem [2] [nm] | λex [2] [nm] | E (extinction coefficient) [1, 8] [M⁻¹ cm⁻¹] | λAbs max [1, 8] [nm] | staining of viable E. coli (microscopy) (E. coli (ATCC 8739) [5]) | also measured |
| --- | --- | --- | --- | --- | --- | --- | --- | --- | --- |
| O=C(O)c1ccc2c(c1)C(=O)OC21c2ccc(O)cc2Oc2cc(O)ccc21 [Example 5-CF, 5-carboxyfluorescein, reference compound] | 76474 ± 4009 | 493 | 0.963 ± 0.004 | 517 ± 0.6 | 491 ± 0.7 |  |  |  |  |
| CC(=O)Oc1ccc2c(c1)Oc1cc(OC(C)=O)ccc1C21OC(=O)c2cc(C(=O)O)ccc21 [Example 5-CFDA, 5-carboxyfluorescein diacetate, reference compound] |  |  |  |  |  |  |  |  | fluorescence intensity of the stained B. subtilis [3]: higher than the staining with 5-POGDA and 5-POGAM |
| O=C(O)c1ccc2c(c1)C(=O)OC21c2cc(F)c(O)cc2Oc2cc(O)c(F)cc21 [Example 5-COG, 5-carboxy Oregon Green™, reference compound] | 83136 ± 4452 | 493 | 0,912 ± 0.011 | 517 ± 0.4 | 491 ± 1.2 |  |  |  |  |
| CC(=O)Oc1cc2c(cc1F)C1(OC(=O)c3cc(C(=O)O)ccc31)c1cc(F)c(OC(C)=O)cc1O2 [Example 5-COGDA, 3',6'-diacetoxy-2',7'-difluoro-3-oxo-3H-spiro[isobenzofuran-1,9'-xanthene]-5-carboxylic acid] |  |  |  |  |  | 6979 ± 282 | 300 | specifically stained with high fluorescence intensity | chemical stability in aqueous solution (in words) [4]: less stable; relative speed of spontaneous fluorescence generation (spontaneous hydrolysis) ([4]; relative to 5-CFDA, 15 µM, PBS containing 0.6 % glutaraldehyde, pH ~7, 37°C, 0-60 min): eight times higher; viable E. coli fluorescence intensity relative to 5-CFDA staining (E. coli (ATCC 8739) [6]; 10 - 15 µM, 30 min at 37 °C, excitation 488 nm, emission 517 nm, Figure 5): between two and three times higher |
| CCCNC(=O)c1ccc2c(c1)C(=O)OC21c2ccc(O)cc2Oc2cc(O)ccc21 [Example 5-PFA, 3',6'-dihydroxy-3-oxo-N-propyl-3H-spiro[isobenzofuran-1,9'-xanthene]-5-carboxamide] | 73490 ± 8454 | 495 | 0,835 ± 0.002 | 518 ± 0.4 | 493 ± 0.3 |  |  |  |  |
| CCCNC(=O)c1ccc2c(c1)C(=O)OC21c2ccc(OC(C)=O)cc2Oc2cc(OC(C)=O)ccc21 [Example 5-PFDA, 3-oxo-5-(propylcarbamoyl)-3H-spiro[isobenzofuran-1,9'-xanthene]-3',6'-diyl diacetate] |  |  |  |  |  | 9284 ± 758 | 291 | specifically stained with high fluorescence intensity | viable E. coli fluorescence intensity compared with 5-CFDA over incubation time (E. coli (ATCC 8739) [6]; 15 µM, 37 °C, incubation for 10 to 60 min, Figure 6): higher fluorescence intensity than incubation with 5-CFDA |
| CCCOC(=O)c1ccc2c(c1)C(=O)OC21c2ccc(OC(C)=O)cc2Oc2cc(OC(C)=O)ccc21 [Example 5-PFDAE, 3-oxo-5-(propoxycarbonyl)-3H-spiro[isobenzofuran-1,9'-xanthene]-3',6'-diyl diacetate] |  |  |  |  |  | 7903 ± 761 | 295 | weaker green fluorescence, as compared to 5-CFDA staining | chemical stability in aqueous solution (in words) [4]: remarkable stability; fluorescence signal of dead E. coli (microscopy) (E. coli (ATCC 8739) [5]): No fluorescence signal of dead bacteria was detected |
| CCCNC(=S)Nc1ccc2c(c1)C(=O)OC21c2ccc(OC(C)=O)cc2Oc2cc(OC(C)=O)ccc21 [Example 5-PFDAT, 3-oxo-5-(3-propylthioureido)-3H-spiro[isobenzofuran-1,0'-xanthene]-3',6'-diyl diacetate] |  |  |  |  |  |  |  | become fluorescent | fluorescence signal of dead E. coli (microscopy) (E. coli (ATCC 8739) [5]): become fluorescent |
| CCCNC(=O)c1ccc2c(c1)C(=O)OC21c2cc(F)c(O)cc2Oc2cc(O)c(F)cc21 [Example 5-POG, 2',7'-difluoro-3',6'-dihydroxy-3-oxo-N-propyl-3H-spiro[isobenzofuran-1,9'-xanthene]-5-carboxamide] | 74835 ± 4762 | 495 | 0,902 ± 0.013 | 518 ± 1.1 | 493 ± 0.6 |  |  |  |  |
